According to ChEMBL document CHEMBL1129209, “Molecular interactions of all possible regioisomers of synthetic myo-inositol phosphates with inositol 1,4,5-trisphosphate 3-kinase” (Bioorg Med Chem Lett, 1997):

Assay: Inhibition of Inositol 1,4,5-trisphosphate 3-kinase (IP3K) from rat brain

O=P(O)(O)O[C@H]1[C@H](O)[C@@H](OP(=O)(O)O)[C@H](OP(=O)(O)O)[C@@H](OP(=O)(O)O)[C@H]1O (stereo in doubt; form 3)
IC50: 220 µM

O=P(O)(O)O[C@H]1[C@H](O)[C@@H](OP(=O)(O)O)[C@H](OP(=O)(O)O)[C@@H](OP(=O)(O)O)[C@H]1O (stereo in doubt; form 1)
IC50: 42.1 µM

O=P(O)(O)O[C@H]1[C@H](O)[C@@H](OP(=O)(O)O)[C@H](OP(=O)(O)O)[C@@H](OP(=O)(O)O)[C@H]1O (stereo in doubt; form 4)
IC50: 65.2 µM

O=P(O)(O)O[C@@H]1[C@H](O)[C@H](O)[C@@H](OP(=O)(O)O)[C@H](OP(=O)(O)O)[C@H]1O (stereo in doubt; form 1) [INS(1,4,5)P3]
IC50: 3.55 µM

O=P(O)(O)O[C@H]1[C@H](O)[C@@H](OP(=O)(O)O)[C@H](OP(=O)(O)O)[C@@H](OP(=O)(O)O)[C@H]1O (stereo in doubt; form 2)
IC50: 56.7 µM

O=P(O)(O)O[C@@H]1[C@H](O)[C@H](O)[C@@H](OP(=O)(O)O)[C@H](OP(=O)(O)O)[C@H]1O (stereo in doubt; form 2) [INS(1,4,5)P3]
IC50: 12.4 µM
